From patent publication US11072591B2, “Tetrazole compounds and their use in the treatment of tuberculosis” (GLAXOSMITHKLINE INTELLECTUAL PROPERTY DEVELOPMENT LIMITED, priority 2017, dated 2021)
≈ marks a conversion by molar mass, not a printed value. Where two headings read alike, the source gives them in different places.

System: M. tuberculosis H37Rv
Test: Mycobacterium tuberculosis H37Rv Inhibition Assay (Whole Cell Assay), MIC
Format: cell-based
[1] = 144 h, M. tuberculosis H37Rv, Middlebrook 7H9 + ADC, 37° C. six days, resazurin readout, read-out: MIC_H37Rv
[2] = M. tuberculosis H37Rv whole cell assay, value from repeated testing of the compound, read-out: MIC

Row | Structure (SMILES) | MIC [1] | MIC [2]
1 | NC(=O)CNS(=O)(=O)c1ccc(-c2nnn(Cc3ccc(F)cn3)n2)cc1 [Example 38] | < 0.1 µM | –
2 | COC(=O)CNS(=O)(=O)c1ccc(-c2nnn(Cc3ccc(F)cc3)n2)cc1 [Example 43] | 1 to 5 µM | –
3 | CCNS(=O)(=O)c1ccc(-c2nnn(Cc3ccncc3)n2)cc1 [Example 5, N-ethyl-4-(2-(pyridin-4-ylmethyl)-2H-tetrazol-5-yl)benzenesulfonamide] | 10 to 25 µM | –
4 | O=S(=O)(NCCO)c1ccc(-c2nnn(Cc3ccc(OC(F)(F)F)cc3)n2)cc1 [Example 97] | 1 to 5 µM | –
5 | C[C@@H](O)CNS(=O)(=O)c1ccc(-c2nnn(Cc3ccc(F)cn3)n2)cc1 [Example 25] | < 0.1 µM | 0.6 µM (≈ 0.235 µg/mL)
6 | CCOc1ccc(Cn2nnc(-c3ccc(S(=O)(=O)NCCO)cc3)n2)cc1 [Example 99] | < 0.1 µM | –
7 | O=S(=O)(NC(CO)CO)c1ccc(-c2nnn(Cc3ccc(F)cc3)n2)cc1 [Example 15] | 5 to 10 µM | –
8 | NC(=O)CNS(=O)(=O)c1ccc(-c2nnn(Cc3ccncc3)n2)cc1 [Example 46, 2-(4-(2-(pyridin-4-ylmethyl)-2H-tetrazol-5-yl)phenylsulfonamido)acetamide] | < 0.1 µM | –
9 | O=S(=O)(NCC(O)CO)c1ccc(-c2nnn(Cc3ccc(F)cc3)n2)cc1 (centres unmarked) [Example 17] | 5 to 10 µM | –
10 | COC(=O)CNS(=O)(=O)c1ccc(-c2nnn(Cc3ccncc3)n2)cc1 [Example 44] | 5 to 10 µM | –
11 | CNS(=O)(=O)c1ccc(-c2nnn(Cc3ccc(C#N)cc3)n2)cc1 [Example 108, 4-(2-(4-cyanobenzyl)-2H-tetrazol-5-yl)-N-methylbenzenesulfonamide] | 1 to 5 µM | –
12 | N#CCNS(=O)(=O)c1ccc(-c2nnn(Cc3cnccn3)n2)cc1 [Example 90, N-(cyanomethyl)-4-(2-(pyrazin-2-ylmethyl)-2H-tetrazol-5-yl)benzenesulfonamide] | < 0.1 µM | –
13 | Cc1ccc(Cn2cc(-c3ccc(S(=O)(=O)NCCO)cc3)nn2)nc1 [Example 67] | 10 to 25 µM | –
14 | COc1ccc(Cn2nnc(-c3ccc(S(=O)(=O)NCC#N)cc3)n2)cn1 [Example 93, N-(cyanomethyl)-4-(2-((6-methoxypyridin-3-yl)methyl)-2H-tetrazol-5-yl)benzenesulfonamide] | < 0.1 µM | –
15 | C[C@@H](O)CNS(=O)(=O)c1ccc(-c2nnn(Cc3ccc(F)cc3)n2)cc1 [Example 24] | < 0.1 µM | –
16 | COc1cc(-c2nnn(Cc3ccncc3)n2)ccc1S(=O)(=O)NCCO [Example 48, N-(2-hydroxyethyl)-2-methoxy-4-(2-(pyridin-4-ylmethyl)-2H-tetrazol-5-yl)benzenesulfonamide] | 1 to 5 µM | –
17 | O=S(=O)(NCCO)c1ccc(-c2nnn(Cc3ccc(C(F)(F)F)cc3)n2)cc1 [Example 98] | 5 to 10 µM | –
18 | Cc1cc(S(=O)(=O)NCCO)c(F)cc1-c1nnn(Cc2ccc(F)cn2)n1 [Example 110, 2-fluoro-4-(2-((5-fluoropyridin-2-yl)methyl)-2H-tetrazol-5-yl)-N-(2-hydroxyethyl)-5-methylbenzenesulfonamide] | < 0.1 µM | –
19 | COc1ccc(Cn2nnc(-c3ccc(S(=O)(=O)NCCO)cc3)n2)cc1 [Example 6, N-(2-hydroxyethyl)-4-(2-(4-methoxybenzyl)-2H-tetrazol-5-yl)benzenesulfonamide] | < 0.1 µM | –
20 | Cc1cccc(Cn2nnc(-c3ccc(S(=O)(=O)NCCO)cc3)n2)n1 [Example 22] | 10 to 25 µM | –
21 | CNS(=O)(=O)c1ccc(-c2nnn(Cc3ccncc3)n2)cc1 [Example 4, N-methyl-4-(2-(pyridin-4-ylmethyl)-2H-tetrazol-5-yl)benzenesulfonamide] | 1 to 5 µM | –
22 | COc1ccc(Cn2nnc(-c3ccc(S(=O)(=O)NC[C@@H](C)O)cc3)n2)cc1 [Example 28] | 1 to 5 µM | –

Row | Structure (SMILES) | MIC [1] | MIC [2]
23 | O=S(=O)(NCCO)c1ccc(-c2nnn(CC3CCCCC3)n2)cc1 [Example 100, 4-(2-(cyclohexylmethyl)-2H-tetrazol-5-yl)-N-(2-hydroxyethyl)benzenesulfonamide] | < 0.1 µM | –
24 | C[C@@H](c1ccc(F)cn1)n1nnc(-c2ccc(S(=O)(=O)NCCO)cc2)n1 [Example 111] | 1 to 5 µM | –
25 | O=S(=O)(NCCO)c1ccc(-c2nnn(CC3CCCCC3)n2)cc1F [Example 79, 4-(2-(cyclohexylmethyl)-2H-tetrazol-5-yl)-2-fluoro-N-(2-hydroxyethyl)benzenesulfonamide] | < 0.1 µM | –
26 | N#CCNS(=O)(=O)c1ccc(-c2nnn(CC3CCOCC3)n2)cc1 [Example 89, N-(cyanomethyl)-4-(2-((tetrahydro-2H-pyran-4-yl)methyl)-2H-tetrazol-5-yl)benzenesulfonamide] | < 0.1 µM | –
27 | Cc1ccc(Cn2nnc(-c3ccc(S(=O)(=O)NC[C@@H](C)O)cc3)n2)nc1 [Example 27] | 10 to 25 µM | –
28 | O=S(=O)(NCCO)c1ccc(-c2nnn(Cc3ccc(C(F)F)cc3)n2)cc1 [Example 10] | < 0.1 µM | –
29 | O=S(=O)(NCCO)c1ccc(-c2nnn(CC3CCC(F)(F)CC3)n2)cc1 [Example 11] | < 0.1 µM | –
30 | C[C@@H](O)CNS(=O)(=O)c1ccc(-c2nnn(CC3CCC(F)(F)CC3)n2)cc1 [Example 13] | 10 to 25 µM | –
31 | N#CCNS(=O)(=O)c1ccc(-c2nnn(Cc3ccncn3)n2)cc1 [Example 58] | < 0.1 µM | –
32 | COc1ccc(Cn2nnc(-c3ccc(S(=O)(=O)NCCO)cc3)n2)nc1 [Example 31] | 1 to 5 µM | –
33 | COc1ccc(Cn2nnc(-c3ccc(S(=O)(=O)NCCO)cc3)n2)cc1F [Example 30] | < 0.1 µM | –
34 | CCc1ccc(Cn2nnc(-c3ccc(S(=O)(=O)NCCO)cc3)n2)cc1 [Example 19] | 1 to 5 µM | –
35 | O=S(=O)(NCCO)c1ccc(-c2nnn(CC3CCOCC3)n2)cc1 [Example 105, N-(2-hydroxyethyl)-4-(2-((tetrahydro-2H-pyran-4-yl)methyl)-2H-tetrazol-5-yl)benzenesulfonamide] | 1 to 5 µM | –
36 | COc1cc(-c2nnn(Cc3ccc(F)cc3)n2)ccc1S(=O)(=O)NCCO [Example 47, 4-(2-(4-fluorobenzyl)-2H-tetrazol-5-yl)-N-(2-hydroxyethyl)-2-methoxybenzenesulfonamide] | < 0.1 µM | –
37 | COc1ccc(Cn2nnc(-c3ccc(S(=O)(=O)NCCO)c(OC)c3)n2)nc1 [Example 109, N-(2-hydroxyethyl)-2-methoxy-4-(2-((5-methoxypyridin-2-yl)methyl)-2H-tetrazol-5-yl)benzenesulfonamide] | 1 to 5 µM | –
38 | O=S(=O)(NCCO)c1c(F)cc(-c2nnn(Cc3ccc(F)cn3)n2)cc1F [Example 87, 2,6-difluoro-4-(2-((5-fluoropyridin-2-yl)methyl)-2H-tetrazol-5-yl)-N-(2-hydroxyethyl)benzenesulfonamide] | – | ≤ 0.04 µM
39 | Cc1cnc(Cn2nnc(-c3ccc(S(=O)(=O)NCC#N)cc3)n2)cn1 [Example 91, N-(cyanomethyl)-4-(2-((5-methylpyrazin-2-yl)methyl)-2H-tetrazol-5-yl)benzenesulfonamide] | < 0.1 µM | –
40 | O=S(=O)(NCCO)c1ccc(-c2nnn(Cc3ccncn3)n2)cc1 [Example 2, N-(2-hydroxyethyl)-4-(2-(pyrimidin-4-ylmethyl)-2H-tetrazol-5-yl)benzenesulfonamide] | 1 to 5 µM | –
41 | Cc1cc(Cn2nnc(-c3ccc(S(=O)(=O)NCCO)cc3)n2)ccn1 [Example 34] | 1 to 5 µM | –
42 | Cc1ccc(Cn2nnc(-c3ccc(S(=O)(=O)NCC(N)=O)cc3)n2)nc1 [Example 40] | < 0.1 µM | –
43 | N#CCNS(=O)(=O)c1ccc(-c2cn(Cc3ccncc3)nn2)cc1 [Example 60] | < 0.1 µM | –
